Source: paper PMC4854315, “Discovery of a novel allosteric inhibitor-binding site in ERK5: comparison with the canonical kinase hinge ATP-binding site” (Acta Crystallographica. Section D, Structural Biology, 2016)

Key:
Assay in all cases: Z'-LYTE kinase panel
Assay type in all cases: biochemical
SRC = biological target: T1, SRC (Homo sapiens, UniProt P12931)
T1 construct: purchased ThermoFisher (SelectScreen, Z'-LYTE)
Outline: (§1)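 Standard Z′-LYTE protocol applied. Compound fixed at 10 µM. Output: % inhibition. Panel size 225 kinases.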

ABL2 (Arg) = biological target: T2, ABL2 (Arg) (Homo sapiens, UniProt P42684)
T2 construct: purchased ThermoFisher (SelectScreen, Z'-LYTE)
Outline: as §1

CLK1 = biological target: T3, CLK1 (Homo sapiens, UniProt P49759)
T3 construct: purchased ThermoFisher (SelectScreen, Z'-LYTE)
Outline: as §1

PRKCH (PKC eta) = biological target: T4, PRKCH (PKC eta) (Homo sapiens, UniProt P24723)
T4 construct: purchased ThermoFisher (SelectScreen, Z'-LYTE)
Outline: as §1

PTK2 (FAK) = biological target: T5, PTK2 (FAK) (Homo sapiens, UniProt Q05397)
T5 construct: purchased ThermoFisher (SelectScreen, Z'-LYTE)
Outline: as §1

TYRO3 (RSE) = biological target: T6, TYRO3 (RSE) (Homo sapiens, UniProt Q06418)
T6 construct: purchased ThermoFisher (SelectScreen, Z'-LYTE)
T6 sequence (Q06418 41-890): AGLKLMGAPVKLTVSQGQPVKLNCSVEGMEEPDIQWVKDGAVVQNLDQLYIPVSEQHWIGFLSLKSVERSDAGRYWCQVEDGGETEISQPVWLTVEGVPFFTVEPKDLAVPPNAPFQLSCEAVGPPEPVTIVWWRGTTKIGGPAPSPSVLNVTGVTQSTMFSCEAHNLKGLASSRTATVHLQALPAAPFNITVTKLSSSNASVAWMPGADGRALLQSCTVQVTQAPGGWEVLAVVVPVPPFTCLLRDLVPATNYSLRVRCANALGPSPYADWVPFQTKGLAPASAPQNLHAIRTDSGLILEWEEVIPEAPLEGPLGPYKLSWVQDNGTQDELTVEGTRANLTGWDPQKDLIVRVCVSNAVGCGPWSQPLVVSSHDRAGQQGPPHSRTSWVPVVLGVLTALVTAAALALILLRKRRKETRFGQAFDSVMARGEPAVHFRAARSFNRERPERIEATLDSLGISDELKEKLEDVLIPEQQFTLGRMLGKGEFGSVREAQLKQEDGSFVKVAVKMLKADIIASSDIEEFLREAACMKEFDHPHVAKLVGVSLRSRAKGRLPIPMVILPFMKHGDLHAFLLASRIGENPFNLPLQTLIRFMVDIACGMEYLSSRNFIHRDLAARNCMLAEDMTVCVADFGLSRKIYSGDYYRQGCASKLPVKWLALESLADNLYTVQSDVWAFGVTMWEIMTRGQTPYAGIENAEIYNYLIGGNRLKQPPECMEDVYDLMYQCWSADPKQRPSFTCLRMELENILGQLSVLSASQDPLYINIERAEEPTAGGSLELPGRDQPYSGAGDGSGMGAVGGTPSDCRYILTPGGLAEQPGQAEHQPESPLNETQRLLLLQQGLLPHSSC
Outline: as §1

FLT4 (VEGFR3) = biological target: T7, FLT4 (VEGFR3) (Homo sapiens, UniProt P35916); conditions: 10 µM compound, ATP Km app
T7 construct: purchased ThermoFisher (SelectScreen, Z'-LYTE)
Outline: as §1

CHEK1 (CHK1) = biological target: T8, CHEK1 (CHK1) (Homo sapiens, UniProt O14757)
T8 construct: purchased ThermoFisher (SelectScreen, Z'-LYTE)
T8 sequence (O14757 1-476): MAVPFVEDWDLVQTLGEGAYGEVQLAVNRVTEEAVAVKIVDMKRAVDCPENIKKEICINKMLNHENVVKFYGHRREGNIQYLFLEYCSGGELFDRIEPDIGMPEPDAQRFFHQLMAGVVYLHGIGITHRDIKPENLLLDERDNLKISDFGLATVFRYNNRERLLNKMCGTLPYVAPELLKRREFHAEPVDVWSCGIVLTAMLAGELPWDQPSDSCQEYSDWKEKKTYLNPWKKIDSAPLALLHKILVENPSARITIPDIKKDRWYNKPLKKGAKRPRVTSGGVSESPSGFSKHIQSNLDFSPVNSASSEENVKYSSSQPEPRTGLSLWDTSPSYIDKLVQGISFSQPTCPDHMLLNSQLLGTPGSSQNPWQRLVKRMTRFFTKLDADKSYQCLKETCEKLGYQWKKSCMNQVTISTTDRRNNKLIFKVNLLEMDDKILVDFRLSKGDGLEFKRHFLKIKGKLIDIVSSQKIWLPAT
Outline: as §1

ERBB4 (HER4) = biological target: T9, ERBB4 (HER4) (Homo sapiens, UniProt Q15303)
T9 construct: purchased ThermoFisher (SelectScreen, Z'-LYTE)
Outline: as §1

PTK2B (FAK2) = biological target: T10, PTK2B (FAK2) (Homo sapiens, UniProt Q14289)
T10 construct: purchased ThermoFisher (SelectScreen, Z'-LYTE)
Outline: as §1

MST4 = biological target: T11, MST4 (Homo sapiens, UniProt Q9P289)
T11 construct: purchased ThermoFisher (SelectScreen, Z'-LYTE)
Outline: as §1

DYRK1B = biological target: T12, DYRK1B (Homo sapiens, UniProt Q9Y463)
T12 construct: purchased ThermoFisher (SelectScreen, Z'-LYTE)
Outline: as §1

ROCK1 = biological target: T13, ROCK1 (Homo sapiens, UniProt Q13464)
T13 construct: purchased ThermoFisher (SelectScreen, Z'-LYTE)
Outline: as §1

DAPK3 (ZIPK) = biological target: T14, DAPK3 (ZIPK) (Homo sapiens, UniProt O43293)
T14 construct: purchased ThermoFisher (SelectScreen, Z'-LYTE)
Outline: as §1

PAK3 = biological target: T15, PAK3 (Homo sapiens, UniProt O75914)
T15 construct: purchased ThermoFisher (SelectScreen, Z'-LYTE)
Outline: as §1

PDK1 Direct = biological target: T16, PDK1 Direct (Homo sapiens, UniProt O15530)
T16 construct: purchased ThermoFisher (SelectScreen, Z'-LYTE)
T16 sequence (O15530 1-556): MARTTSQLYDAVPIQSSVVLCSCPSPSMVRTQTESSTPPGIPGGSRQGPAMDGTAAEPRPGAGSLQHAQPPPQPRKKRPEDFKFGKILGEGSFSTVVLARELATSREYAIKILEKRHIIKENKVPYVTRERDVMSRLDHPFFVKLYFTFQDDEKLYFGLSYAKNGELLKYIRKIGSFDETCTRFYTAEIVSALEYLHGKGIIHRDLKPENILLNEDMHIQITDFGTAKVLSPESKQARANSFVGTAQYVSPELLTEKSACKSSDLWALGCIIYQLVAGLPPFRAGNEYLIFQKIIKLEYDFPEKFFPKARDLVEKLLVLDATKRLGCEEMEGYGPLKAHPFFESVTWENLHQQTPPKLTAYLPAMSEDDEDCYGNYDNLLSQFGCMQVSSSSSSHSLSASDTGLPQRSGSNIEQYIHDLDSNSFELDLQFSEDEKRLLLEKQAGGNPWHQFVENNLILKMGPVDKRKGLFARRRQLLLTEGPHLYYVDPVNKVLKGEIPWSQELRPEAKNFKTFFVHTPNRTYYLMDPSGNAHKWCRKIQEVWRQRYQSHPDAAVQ
Outline: as §1

LTK (TYK1) = biological target: T17, LTK (TYK1) (Homo sapiens, UniProt P29376)
T17 construct: purchased ThermoFisher (SelectScreen, Z'-LYTE)
Outline: as §1

T12 sequence (Q9Y463 whole entry): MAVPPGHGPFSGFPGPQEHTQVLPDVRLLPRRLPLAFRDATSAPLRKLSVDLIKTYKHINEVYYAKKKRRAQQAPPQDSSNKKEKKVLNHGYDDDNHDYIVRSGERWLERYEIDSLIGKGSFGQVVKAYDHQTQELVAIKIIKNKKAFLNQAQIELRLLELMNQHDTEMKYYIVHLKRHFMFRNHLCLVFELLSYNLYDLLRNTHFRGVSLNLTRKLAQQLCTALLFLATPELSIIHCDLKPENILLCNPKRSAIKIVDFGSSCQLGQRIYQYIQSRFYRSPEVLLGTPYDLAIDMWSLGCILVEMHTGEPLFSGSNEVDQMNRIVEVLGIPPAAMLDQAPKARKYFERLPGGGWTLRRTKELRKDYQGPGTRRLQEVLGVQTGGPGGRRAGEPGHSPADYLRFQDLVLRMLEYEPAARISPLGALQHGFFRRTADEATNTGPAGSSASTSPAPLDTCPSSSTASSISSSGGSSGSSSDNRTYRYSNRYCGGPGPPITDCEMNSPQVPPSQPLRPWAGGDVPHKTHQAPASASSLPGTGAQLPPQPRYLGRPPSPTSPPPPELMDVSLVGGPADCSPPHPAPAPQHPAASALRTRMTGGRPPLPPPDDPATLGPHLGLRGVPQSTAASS
T9 sequence (Q15303 26-1308): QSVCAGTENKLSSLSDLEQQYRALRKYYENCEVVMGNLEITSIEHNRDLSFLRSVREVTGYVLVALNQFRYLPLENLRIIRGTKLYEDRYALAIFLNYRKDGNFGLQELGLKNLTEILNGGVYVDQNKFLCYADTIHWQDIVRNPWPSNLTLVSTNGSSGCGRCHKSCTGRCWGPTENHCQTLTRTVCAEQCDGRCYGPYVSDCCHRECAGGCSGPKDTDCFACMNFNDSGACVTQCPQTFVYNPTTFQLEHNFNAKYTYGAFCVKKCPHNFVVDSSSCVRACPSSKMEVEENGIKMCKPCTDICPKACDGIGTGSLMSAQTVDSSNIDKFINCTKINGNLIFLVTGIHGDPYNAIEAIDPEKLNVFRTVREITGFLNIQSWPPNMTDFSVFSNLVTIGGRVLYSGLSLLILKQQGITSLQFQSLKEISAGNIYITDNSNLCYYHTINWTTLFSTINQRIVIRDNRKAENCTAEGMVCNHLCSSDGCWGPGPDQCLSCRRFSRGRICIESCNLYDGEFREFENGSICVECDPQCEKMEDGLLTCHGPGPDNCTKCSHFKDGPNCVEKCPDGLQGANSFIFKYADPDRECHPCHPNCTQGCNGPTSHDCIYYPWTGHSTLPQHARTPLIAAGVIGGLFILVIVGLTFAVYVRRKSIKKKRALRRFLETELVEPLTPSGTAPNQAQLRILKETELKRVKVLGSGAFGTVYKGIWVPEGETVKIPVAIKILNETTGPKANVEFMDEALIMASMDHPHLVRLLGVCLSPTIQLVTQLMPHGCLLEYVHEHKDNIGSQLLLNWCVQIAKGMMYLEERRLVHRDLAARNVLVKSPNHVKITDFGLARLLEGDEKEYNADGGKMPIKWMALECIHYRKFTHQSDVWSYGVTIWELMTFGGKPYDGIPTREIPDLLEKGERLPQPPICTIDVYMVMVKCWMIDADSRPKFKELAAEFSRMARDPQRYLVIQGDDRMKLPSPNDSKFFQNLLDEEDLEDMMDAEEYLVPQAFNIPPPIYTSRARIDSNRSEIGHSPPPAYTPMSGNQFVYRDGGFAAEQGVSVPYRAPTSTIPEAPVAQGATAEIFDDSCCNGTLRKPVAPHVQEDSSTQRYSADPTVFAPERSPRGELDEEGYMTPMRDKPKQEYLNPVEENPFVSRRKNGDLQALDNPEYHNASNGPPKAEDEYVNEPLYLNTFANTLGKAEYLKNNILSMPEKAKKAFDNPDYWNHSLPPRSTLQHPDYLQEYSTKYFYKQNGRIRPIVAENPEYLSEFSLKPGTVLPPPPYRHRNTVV
T10 sequence (Q14289 whole entry): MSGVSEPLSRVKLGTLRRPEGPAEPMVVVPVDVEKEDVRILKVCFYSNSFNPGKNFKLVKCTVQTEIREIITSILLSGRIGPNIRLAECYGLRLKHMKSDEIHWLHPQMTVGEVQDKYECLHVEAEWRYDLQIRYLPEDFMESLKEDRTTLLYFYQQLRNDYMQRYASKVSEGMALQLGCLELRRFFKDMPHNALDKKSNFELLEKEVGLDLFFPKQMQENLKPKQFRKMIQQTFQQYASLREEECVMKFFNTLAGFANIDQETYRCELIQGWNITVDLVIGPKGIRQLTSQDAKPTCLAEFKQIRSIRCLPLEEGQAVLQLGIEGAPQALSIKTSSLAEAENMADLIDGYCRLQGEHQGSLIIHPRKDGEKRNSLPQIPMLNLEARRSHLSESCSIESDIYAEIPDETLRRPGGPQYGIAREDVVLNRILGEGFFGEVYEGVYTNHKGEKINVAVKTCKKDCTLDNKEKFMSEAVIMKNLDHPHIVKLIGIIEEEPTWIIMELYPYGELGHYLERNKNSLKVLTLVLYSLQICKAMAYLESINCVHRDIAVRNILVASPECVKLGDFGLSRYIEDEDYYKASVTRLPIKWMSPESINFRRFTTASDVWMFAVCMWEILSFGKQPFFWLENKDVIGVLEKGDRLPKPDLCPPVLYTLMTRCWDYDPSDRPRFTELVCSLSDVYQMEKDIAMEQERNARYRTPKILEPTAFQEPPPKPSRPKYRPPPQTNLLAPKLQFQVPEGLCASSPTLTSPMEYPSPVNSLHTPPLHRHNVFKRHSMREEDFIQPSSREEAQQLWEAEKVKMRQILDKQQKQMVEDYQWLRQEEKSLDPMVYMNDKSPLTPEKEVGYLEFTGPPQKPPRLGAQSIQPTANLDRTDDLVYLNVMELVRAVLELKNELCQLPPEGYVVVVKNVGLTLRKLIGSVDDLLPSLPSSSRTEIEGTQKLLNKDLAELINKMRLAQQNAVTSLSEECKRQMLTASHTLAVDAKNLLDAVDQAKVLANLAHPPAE
T14 sequence (O43293 whole entry): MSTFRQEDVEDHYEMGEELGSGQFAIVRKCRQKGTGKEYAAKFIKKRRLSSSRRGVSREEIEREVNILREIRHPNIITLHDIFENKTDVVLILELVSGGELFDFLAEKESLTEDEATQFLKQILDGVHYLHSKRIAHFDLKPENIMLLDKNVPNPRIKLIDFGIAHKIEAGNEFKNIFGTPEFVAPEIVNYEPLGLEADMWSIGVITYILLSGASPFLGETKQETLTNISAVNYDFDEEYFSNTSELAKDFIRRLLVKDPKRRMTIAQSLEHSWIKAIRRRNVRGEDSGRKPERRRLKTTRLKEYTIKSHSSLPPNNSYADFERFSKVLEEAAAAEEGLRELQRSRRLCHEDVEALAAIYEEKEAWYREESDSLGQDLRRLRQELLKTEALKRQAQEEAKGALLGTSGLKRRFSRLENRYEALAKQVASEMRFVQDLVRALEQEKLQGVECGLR
T7 sequence (P35916 25-1363): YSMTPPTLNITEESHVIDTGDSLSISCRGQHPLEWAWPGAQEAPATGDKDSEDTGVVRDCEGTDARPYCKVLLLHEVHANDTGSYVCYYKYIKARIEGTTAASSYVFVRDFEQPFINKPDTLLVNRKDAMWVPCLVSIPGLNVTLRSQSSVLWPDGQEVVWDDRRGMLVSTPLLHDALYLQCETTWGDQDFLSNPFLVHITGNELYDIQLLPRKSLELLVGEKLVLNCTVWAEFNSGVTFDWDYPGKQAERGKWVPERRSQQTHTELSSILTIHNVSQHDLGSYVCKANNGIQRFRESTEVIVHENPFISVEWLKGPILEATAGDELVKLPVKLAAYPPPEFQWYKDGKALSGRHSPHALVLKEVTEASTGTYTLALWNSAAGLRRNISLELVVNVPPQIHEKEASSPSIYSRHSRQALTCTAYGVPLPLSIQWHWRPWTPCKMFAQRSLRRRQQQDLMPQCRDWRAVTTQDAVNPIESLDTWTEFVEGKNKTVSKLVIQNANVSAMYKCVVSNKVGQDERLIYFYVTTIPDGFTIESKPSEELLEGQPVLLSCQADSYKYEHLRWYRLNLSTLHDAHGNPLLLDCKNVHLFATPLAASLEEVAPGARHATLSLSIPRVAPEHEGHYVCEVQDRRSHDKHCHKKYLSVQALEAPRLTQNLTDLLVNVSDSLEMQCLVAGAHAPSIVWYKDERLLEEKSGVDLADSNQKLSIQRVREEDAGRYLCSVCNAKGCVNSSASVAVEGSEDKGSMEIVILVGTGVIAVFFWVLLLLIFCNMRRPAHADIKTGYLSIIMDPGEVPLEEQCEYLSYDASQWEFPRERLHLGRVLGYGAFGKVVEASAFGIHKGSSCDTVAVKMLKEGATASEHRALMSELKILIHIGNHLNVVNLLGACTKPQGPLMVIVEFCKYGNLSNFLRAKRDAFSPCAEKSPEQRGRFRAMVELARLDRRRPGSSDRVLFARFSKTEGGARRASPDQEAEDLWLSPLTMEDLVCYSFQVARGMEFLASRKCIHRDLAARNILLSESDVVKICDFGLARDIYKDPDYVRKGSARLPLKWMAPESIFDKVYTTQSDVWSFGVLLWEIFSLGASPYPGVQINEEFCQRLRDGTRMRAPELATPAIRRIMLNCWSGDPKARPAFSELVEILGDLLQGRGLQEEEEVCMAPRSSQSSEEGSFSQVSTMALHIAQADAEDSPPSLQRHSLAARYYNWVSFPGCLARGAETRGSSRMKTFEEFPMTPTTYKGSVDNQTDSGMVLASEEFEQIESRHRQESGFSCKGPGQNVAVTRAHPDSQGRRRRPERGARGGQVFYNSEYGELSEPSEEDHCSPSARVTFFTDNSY

Compound: Cc1cc(Nc2nc(N)nn2C(=O)NC(C)C)ccc1Cl [Compound 5]
- inhibition at 10 µM (SRC): 26%
- inhibition at 10 µM (ABL2 (Arg)): 52%
- inhibition at 10 µM (CLK1): 10%
- inhibition at 10 µM (PRKCH (PKC eta)): -18%
- inhibition at 10 µM (PTK2 (FAK)): 10%
- inhibition at 10 µM (TYRO3 (RSE)): 14%
- inhibition at 10 µM (FLT4 (VEGFR3)): > 80%
- FLT4 (VEGFR3) % Inhibition (FLT4 (VEGFR3); listed as SN1109056190, 10 µM): 86%
- inhibition at 10 µM (CHEK1 (CHK1)): 14%
- inhibition at 10 µM (ERBB4 (HER4)): 7%
- inhibition at 10 µM (PTK2B (FAK2)): 23%
- inhibition at 10 µM (MST4): 43%
- inhibition at 10 µM (DYRK1B): -4%
- inhibition at 10 µM (ROCK1): 37%
- inhibition at 10 µM (DAPK3 (ZIPK)): -7.41%
- inhibition at 10 µM (PAK3): -12%
- inhibition at 10 µM (PDK1 Direct): -1.67%
- inhibition at 10 µM (LTK (TYK1)): 18%

Compound: Cc1ncc(-c2nc(Nc3ccc(C(=O)NCCN4CCCCC4)cc3)ncc2F)n1C(C)C [Compound 3]
- inhibition at 10 µM (SRC): 79%
- inhibition at 10 µM (ABL2 (Arg)): 75%
- inhibition at 10 µM (CLK1): 101%
- inhibition at 10 µM (PRKCH (PKC eta)): 54%
- inhibition at 10 µM (PTK2 (FAK)): 94%
- inhibition at 10 µM (TYRO3 (RSE)): 92%
- inhibition at 10 µM (FLT4 (VEGFR3)): 99%
- inhibition at 10 µM (CHEK1 (CHK1)): 87%
- inhibition at 10 µM (ERBB4 (HER4)): 17%
- inhibition at 10 µM (PTK2B (FAK2)): 94%
- inhibition at 10 µM (MST4): 75%
- inhibition at 10 µM (DYRK1B): 100%
- inhibition at 10 µM (ROCK1): 27%
- inhibition at 10 µM (DAPK3 (ZIPK)): 78%
- inhibition at 10 µM (PAK3): 37%
- inhibition at 10 µM (PDK1 Direct): 89%
- inhibition at 10 µM (LTK (TYK1)): 73%

Compound: XMD8-92 [Compound 2, reference compound]
- SRC % Inhibition (SRC; 10 µM compound, ATP Km app): 11%
- ABL2 (Arg) % Inhibition (ABL2 (Arg); 10 µM compound, ATP Km app): 21%
- CLK1 % Inhibition (CLK1; 10 µM compound, ATP Km app): 6%
- PRKCH (PKC eta) % Inhibition (PRKCH (PKC eta); 10 µM compound, ATP Km app): 41%
- PTK2 (FAK) % Inhibition (PTK2 (FAK); 10 µM compound, ATP Km app): 47%
- TYRO3 (RSE) % Inhibition (TYRO3 (RSE); 10 µM compound, ATP Km app): 9%
- FLT4 (VEGFR3) % Inhibition (FLT4 (VEGFR3)): 4%
- CHEK1 (CHK1) % Inhibition (CHEK1 (CHK1); 10 µM compound, ATP Km app): 8%
- ERBB4 (HER4) % Inhibition (ERBB4 (HER4); 10 µM compound, ATP Km app): 16%
- PTK2B (FAK2) % Inhibition (PTK2B (FAK2); 10 µM compound, ATP Km app): 20%
- MST4 % Inhibition (MST4; 10 µM compound, ATP Km app): 15%
- DYRK1B % Inhibition (DYRK1B; 10 µM compound, ATP Km app): 12%
- ROCK1 % Inhibition (ROCK1; 10 µM compound, ATP Km app): 16%
- DAPK3 (ZIPK) % Inhibition (DAPK3 (ZIPK); 10 µM compound, ATP Km app): -0.894%
- PAK3 % Inhibition (PAK3; 10 µM compound, ATP Km app): 71%
- PDK1 Direct % Inhibition (PDK1 Direct; 10 µM compound, ATP Km app): -15%
- LTK (TYK1) % Inhibition (LTK (TYK1); 10 µM compound, ATP Km app): 24%
